Measured values published in US10159640B2, “Prebiotic oral care compositions containing amino acids” (COLGATE-PALMOLIVE COMPANY, priority 2013, dated 2018).

Columns and labels:
Assay in all cases: Biofilm growth assay in BHI, crystal violet
Format in all cases: cell-based
Settings in all cases: control = 1
[1] = system: Aggregatibacter actinomycetemcomitans
Method: (§1) The increase in biofilm formation of the tested bacteria in response to selected compounds (Met-Pro, Phe-Glu) was investigated by setting up biofilm growth assays in a nutritionally rich medium (brain heart infusion broth (BHI), Oxoid), over 48 hours. Late exponential growth phase liquid cultures were prepared by transferring the respective bacterium from blood agar plates to BHI and overnight incubation at 37° C. in an anaerobic atmosphere for A. viscosus, V. parvula, F. nucleatum, P. gingivalis, P. intermedia, T. forsythia, A. naeslundii, and C. sputigena, and in a 5% CO2 environment for S. salivarius, S. sanguinis, S. mitis, A. actinomycetemcomitans, S. mutans, and S. gordonii. Overnight cultures were transferred to BHI and adjusted to a concentration of 1×10^7 CFU/ml by measuring the optical density at 600 nm (OD600) (BioRad SmartSpec 3000). For each strain, 200 μl of the bacterial suspension was added to a 96-well plate containing 20 μl of the respective di-peptides. Final concentrations of the di-peptides were set to 5, 10, 20 and 25 μmol/ml. […] Additionally, for each bacterium tested, a background control, to correct for background staining, was added. This background control contained the bacterium tested and 0.03 weight % chlorhexidine, as an antiseptic. Plates were incubated as previously described. After 48 hrs the supernatant was removed from the wells of the plates. The wells were washed twice with 1×100 μL PBS (phosphate buffered saline), fixed for 20 minutes with 96% vol. ethanol (96% vol. solution in water) and the biofilm retained at the bottom of the wells was stained with 1 weight % crystal violet (1 weight % solution in water). The bound dye was dissolved with 5% vol. acetic acid (5% vol. solution in water). Quantification of the stained biofilm was performed by measuring the absorbance at 630 nm using a Multiskan Ascent microplate reader (Thermo Scientific).
(§2) The experiment was carried out on three different days (thus providing 3 biological replicas) and each day the experiment was carried out in quadruple (thus providing 4 technical replicas) for each combination of bacterium with dipeptide and for each control. For each day and for each combination, the average (mean) of the values obtained (as detailed above) for the four technical replicas was calculated to provide a single value for each combination on each day. The values shown in Tables 7 to 8, below, are the average (mean) of the three single values obtained for each combination of bacterium with dipeptide.

[2] = system: Streptococcus mitis
Method: as §1, §2

[3] = system: Fusobacterium nucleatum
Method: as §1, §2

[4] = system: Porphyromonas gingivalis
Method: as §1, §2

[5] = system: Prevotella intermedia
Method: as §1, §2

[6] = system: Capnocytophaga sputigena
Method: as §1, §2

[7] = system: Streptococcus mutans
Method: as §1, §2

[8] = system: Actinomyces viscosus
Method: as §1, §2

[9] = system: Tannerella forsythia
Method: as §1, §2

[10] = system: Actinomyces naeslundii
Method: as §1, §2

[11] = system: Streptococcus gordonii
Method: as §1, §2

[12] = system: Streptococcus sanguinis
Method: as §1, §2

[13] = system: Veillonella parvula
Method: as §1, §2

[14] = system: Streptococcus salivarius
Method: as §1, §2

## Met-Pro
[1]; 5 μmol/ml
  biofilm growth: OD 630 nm (crystal violet) at 48 hrs divided by OD of control: 0.8177
[1]; 10 μmol/ml
  biofilm growth: OD 630 nm (crystal violet) at 48 hrs divided by OD of control: 0.5095
[1]; 20 μmol/ml
  biofilm growth: OD 630 nm (crystal violet) at 48 hrs divided by OD of control: 0.2556
[1]; 25 μmol/ml
  biofilm growth: OD 630 nm (crystal violet) at 48 hrs divided by OD of control: 0.1103
[2]; 5 μmol/ml
  biofilm growth: OD 630 nm (crystal violet) at 48 hrs divided by OD of control: 1.3974
[2]; 10 μmol/ml
  biofilm growth: OD 630 nm (crystal violet) at 48 hrs divided by OD of control: 1.4008
[2]; 20 μmol/ml
  biofilm growth: OD 630 nm (crystal violet) at 48 hrs divided by OD of control: 0.2959
[2]; 25 μmol/ml
  biofilm growth: OD 630 nm (crystal violet) at 48 hrs divided by OD of control: 0.0464
[3]; 5 μmol/ml
  biofilm growth: OD 630 nm (crystal violet) at 48 hrs divided by OD of control: 0.6087
[3]; 10 μmol/ml
  biofilm growth: OD 630 nm (crystal violet) at 48 hrs divided by OD of control: 0.5568
[3]; 20 μmol/ml
  biofilm growth: OD 630 nm (crystal violet) at 48 hrs divided by OD of control: 0.6796
[3]; 25 μmol/ml
  biofilm growth: OD 630 nm (crystal violet) at 48 hrs divided by OD of control: 0.5216
[4]; 5 μmol/ml
  biofilm growth: OD 630 nm (crystal violet) at 48 hrs divided by OD of control: 0.6831
[4]; 10 μmol/ml
  biofilm growth: OD 630 nm (crystal violet) at 48 hrs divided by OD of control: 0.7344
[4]; 20 μmol/ml
  biofilm growth: OD 630 nm (crystal violet) at 48 hrs divided by OD of control: 0.8922
[4]; 25 μmol/ml
  biofilm growth: OD 630 nm (crystal violet) at 48 hrs divided by OD of control: 0.4990
[5]; 5 μmol/ml
  biofilm growth: OD 630 nm (crystal violet) at 48 hrs divided by OD of control: 1.2520
[5]; 10 μmol/ml
  biofilm growth: OD 630 nm (crystal violet) at 48 hrs divided by OD of control: 0.9773
[5]; 20 μmol/ml
  biofilm growth: OD 630 nm (crystal violet) at 48 hrs divided by OD of control: 0.2095
[5]; 25 μmol/ml
  biofilm growth: OD 630 nm (crystal violet) at 48 hrs divided by OD of control: 0.1148
[6]; 5 μmol/ml
  biofilm growth: OD 630 nm (crystal violet) at 48 hrs divided by OD of control: 0.2411
[6]; 10 μmol/ml
  biofilm growth: OD 630 nm (crystal violet) at 48 hrs divided by OD of control: 0.1949
[6]; 20 μmol/ml
  biofilm growth: OD 630 nm (crystal violet) at 48 hrs divided by OD of control: 0.1660
[6]; 25 μmol/ml
  biofilm growth: OD 630 nm (crystal violet) at 48 hrs divided by OD of control: 0.0138
[7]; 5 μmol/ml
  biofilm growth: OD 630 nm (crystal violet) at 48 hrs divided by OD of control: 0.0252
[7]; 10 μmol/ml
  biofilm growth: OD 630 nm (crystal violet) at 48 hrs divided by OD of control: 0.0118
[7]; 20 μmol/ml
  biofilm growth: OD 630 nm (crystal violet) at 48 hrs divided by OD of control: 0.9625
[7]; 25 μmol/ml
  biofilm growth: OD 630 nm (crystal violet) at 48 hrs divided by OD of control: 1.3235
[8]; 5 μmol/ml
  biofilm growth: OD 630 nm (crystal violet) at 48 hrs divided by OD of control: 0.4286
[8]; 10 μmol/ml
  biofilm growth: OD 630 nm (crystal violet) at 48 hrs divided by OD of control: 0.4021
[8]; 20 μmol/ml
  biofilm growth: OD 630 nm (crystal violet) at 48 hrs divided by OD of control: 0.1766
[8]; 25 μmol/ml
  biofilm growth: OD 630 nm (crystal violet) at 48 hrs divided by OD of control: 0.0355
[9]; 5 μmol/ml
  biofilm growth: OD 630 nm (crystal violet) at 48 hrs divided by OD of control: 0.4857
[9]; 10 μmol/ml
  biofilm growth: OD 630 nm (crystal violet) at 48 hrs divided by OD of control: 0.4691
[9]; 20 μmol/ml
  biofilm growth: OD 630 nm (crystal violet) at 48 hrs divided by OD of control: 0.2726
[9]; 25 μmol/ml
  biofilm growth: OD 630 nm (crystal violet) at 48 hrs divided by OD of control: 0.1909
[10]; 5 μmol/ml
  biofilm growth: OD 630 nm (crystal violet) at 48 hrs divided by OD of control: 1.1703
[10]; 10 μmol/ml
  biofilm growth: OD 630 nm (crystal violet) at 48 hrs divided by OD of control: 0.9986
[10]; 20 μmol/ml
  biofilm growth: OD 630 nm (crystal violet) at 48 hrs divided by OD of control: 0.4130
[10]; 25 μmol/ml
  biofilm growth: OD 630 nm (crystal violet) at 48 hrs divided by OD of control: 0.1281
[11]; 5 μmol/ml
  biofilm growth: OD 630 nm (crystal violet) at 48 hrs divided by OD of control: 1.4212
[11]; 10 μmol/ml
  biofilm growth: OD 630 nm (crystal violet) at 48 hrs divided by OD of control: 1.8572
[11]; 20 μmol/ml
  biofilm growth: OD 630 nm (crystal violet) at 48 hrs divided by OD of control: 1.6395
[11]; 25 μmol/ml
  biofilm growth: OD 630 nm (crystal violet) at 48 hrs divided by OD of control: 1.4372
[12]; 5 μmol/ml
  biofilm growth: OD 630 nm (crystal violet) at 48 hrs divided by OD of control: 1.1768
[12]; 10 μmol/ml
  biofilm growth: OD 630 nm (crystal violet) at 48 hrs divided by OD of control: 1.7015
[12]; 20 μmol/ml
  biofilm growth: OD 630 nm (crystal violet) at 48 hrs divided by OD of control: 2.1767
[12]; 25 μmol/ml
  biofilm growth: OD 630 nm (crystal violet) at 48 hrs divided by OD of control: 1.6580
[13]; 5 μmol/ml
  biofilm growth: OD 630 nm (crystal violet) at 48 hrs divided by OD of control: 0.2845
[13]; 10 μmol/ml
  biofilm growth: OD 630 nm (crystal violet) at 48 hrs divided by OD of control: 0.2886
[13]; 20 μmol/ml
  biofilm growth: OD 630 nm (crystal violet) at 48 hrs divided by OD of control: 0.1745
[13]; 25 μmol/ml
  biofilm growth: OD 630 nm (crystal violet) at 48 hrs divided by OD of control: 0.2121
[14]; 5 μmol/ml
  biofilm growth: OD 630 nm (crystal violet) at 48 hrs divided by OD of control: 0.8003
[14]; 10 μmol/ml
  biofilm growth: OD 630 nm (crystal violet) at 48 hrs divided by OD of control: 0.9847
[14]; 20 μmol/ml
  biofilm growth: OD 630 nm (crystal violet) at 48 hrs divided by OD of control: 1.0385
[14]; 25 μmol/ml
  biofilm growth: OD 630 nm (crystal violet) at 48 hrs divided by OD of control: 1.4734
